The source made the active and inactive calls. The calls are words filed in the database; no cut-off is given here.
Experiments:
[1] = tested on: BaF3; experiment: cells; details: Mus musculus, BaF3, 72 h
[2] = tested on: Receptor-type tyrosine-protein kinase FLT3 (Homo sapiens), P36888 [UNDEFINED MUTATION]; assay type: cell-based; details: BaF3, dose lower […], dose upper 2000.0 nM, time 2.0 hrs
[3] = tested on: HL-60; experiment: Induction of cell cycle arrest in human HL-60 cells assessed as proportion of cells at G2/M phase at 3.2 nM incubated for 24 hrs by PI staining based flow cytometry (reference value: 14.52%); assay type: functional
[4] = tested on: HL-60; experiment: Induction of cell cycle arrest in human HL-60 cells assessed as proportion of cells at G2/M phase at 80 nM incubated for 24 hrs by PI staining based flow cytometry (reference value: 14.52%); assay type: functional
[5] = biological target: Receptor-type tyrosine-protein kinase FLT3 (Homo sapiens) (UniProt P36888); experiment: Inhibition of FLT3 in human MV4-11 cells assessed as inhibition of FLT3 autophosphorylation at Tyr589/591 residues incubated for 1 hr by immunoblot analysis; assay type: cell-based; details: dose lower […], dose upper 2000.0 nM
Chain of Receptor-type tyrosine-protein kinase FLT3 (Homo sapiens) (P36888 whole entry): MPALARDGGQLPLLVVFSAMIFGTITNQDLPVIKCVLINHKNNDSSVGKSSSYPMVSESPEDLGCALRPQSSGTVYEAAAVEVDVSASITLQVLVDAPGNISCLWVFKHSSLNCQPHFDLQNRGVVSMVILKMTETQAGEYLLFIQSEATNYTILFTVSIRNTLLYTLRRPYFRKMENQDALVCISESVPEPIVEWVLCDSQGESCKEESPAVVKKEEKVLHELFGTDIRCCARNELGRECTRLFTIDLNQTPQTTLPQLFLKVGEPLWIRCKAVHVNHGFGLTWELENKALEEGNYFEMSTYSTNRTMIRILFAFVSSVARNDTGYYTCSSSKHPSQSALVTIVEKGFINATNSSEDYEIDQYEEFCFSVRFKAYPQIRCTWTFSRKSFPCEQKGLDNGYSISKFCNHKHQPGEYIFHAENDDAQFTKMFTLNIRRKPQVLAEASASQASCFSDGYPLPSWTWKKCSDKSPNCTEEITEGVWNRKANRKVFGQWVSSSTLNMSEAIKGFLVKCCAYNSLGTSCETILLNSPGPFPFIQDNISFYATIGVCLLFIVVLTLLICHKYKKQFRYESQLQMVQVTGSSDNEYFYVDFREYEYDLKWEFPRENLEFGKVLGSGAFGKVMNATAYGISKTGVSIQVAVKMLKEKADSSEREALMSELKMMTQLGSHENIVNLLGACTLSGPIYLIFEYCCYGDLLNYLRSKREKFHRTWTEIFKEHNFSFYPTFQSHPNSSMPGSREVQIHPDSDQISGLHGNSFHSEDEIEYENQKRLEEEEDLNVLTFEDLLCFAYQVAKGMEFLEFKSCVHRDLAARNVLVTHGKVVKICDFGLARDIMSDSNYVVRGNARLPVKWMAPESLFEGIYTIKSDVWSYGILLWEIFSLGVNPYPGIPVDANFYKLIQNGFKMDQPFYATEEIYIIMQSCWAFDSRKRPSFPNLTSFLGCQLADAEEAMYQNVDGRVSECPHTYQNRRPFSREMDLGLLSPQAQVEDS

[6] = tested on: HL-60; experiment: Induction of cell cycle arrest in human HL-60 cells assessed as proportion of cells at G1 phase at 2000 nM incubated for 24 hrs by PI staining based flow cytometry (reference value: 49.36%); assay type: functional
[7] = tested on: MV4-11; experiment: Induction of cell cycle arrest in human MV4-11 cells assessed as proportion of cells at subG1 phase at 400 nM incubated for 24 hrs by PI staining based flow cytometry (reference value: 10.44%); assay type: functional
[8] = tested on: Receptor-type tyrosine-protein kinase FLT3 (Homo sapiens), P36888 [UNDEFINED MUTATION]; experiment: Inhibition of FLT3-ITD mutant (unknown origin) expressed in mouse BaF3 cells assessed as inhibition of FLT3 autophosphorylation at Tyr589/591 residues at 16 to 2000 nM incubated for 2 hrs by immunoblot analysis; assay type: cell-based; details: dose lower […], dose upper 2000.0 nM
[9] = tested on: HL-60; experiment: Induction of cell cycle arrest in human HL-60 cells assessed as proportion of cells at G1 phase at 16 nM incubated for 24 hrs by PI staining based flow cytometry (reference value: 49.36%); assay type: functional
[10] = tested on: HL-60; experiment: Induction of cell cycle arrest in human HL-60 cells assessed as proportion of cells at subG1 phase at 3.2 nM incubated for 24 hrs by PI staining based flow cytometry (reference value: 6.94%); assay type: functional
[11] = tested on: HL-60; experiment: Induction of cell cycle arrest in human HL-60 cells assessed as proportion of cells at G2/M phase at 400 nM incubated for 24 hrs by PI staining based flow cytometry (reference value: 14.52%); assay type: functional
[12] = tested on: MOLM-13; experiment: cells; details: Homo sapiens, MOLM-13, 72 h
[13] = tested on: HL-60; experiment: Induction of cell cycle arrest in human HL-60 cells assessed as proportion of cells at G2/M phase at 2000 nM incubated for 24 hrs by PI staining based flow cytometry (reference value: 14.52%); assay type: functional
[14] = tested on: MV4-11; experiment: Induction of cell cycle arrest in human MV4-11 cells assessed as proportion of cells at S phase at 2000 nM incubated for 24 hrs by PI staining based flow cytometry (reference value: 25.97%); assay type: functional
[15] = tested on: MV4-11; experiment: Induction of cell cycle arrest in human MV4-11 cells assessed as proportion of cells at subG1 phase at 2000 nM incubated for 24 hrs by PI staining based flow cytometry (reference value: 10.44%); assay type: functional
[16] = tested on: MV4-11; experiment: Induction of cell cycle arrest in human MV4-11 cells assessed as proportion of cells at S phase at 16 nM incubated for 24 hrs by PI staining based flow cytometry (reference value: 25.97%); assay type: functional
[17] = tested on: MV4-11; experiment: Induction of cell cycle arrest in human MV4-11 cells assessed as proportion of cells at S phase at 80 nM incubated for 24 hrs by PI staining based flow cytometry (reference value: 25.97%); assay type: functional
[18] = biological target: Receptor-type tyrosine-protein kinase FLT3 (Homo sapiens) (UniProt P36888); experiment: Inhibition of FLT3 in human MV4-11 cells assessed as inhibition of ERK1/2 phosphorylation at Thr202/Tyr204 residues incubated for 1 hr by immunoblot analysis; assay type: cell-based; details: dose lower […], dose upper 2000.0 nM
[19] = tested on: MV4-11; experiment: Induction of cell cycle arrest in human MV4-11 cells assessed as proportion of cells at G2/M phase at 2000 nM incubated for 24 hrs by PI staining based flow cytometry (reference value: 10%); assay type: functional
[20] = tested on: Receptor-type tyrosine-protein kinase FLT3 (Homo sapiens), P36888 [UNDEFINED MUTATION]; assay type: cell-based; details: BaF3, dose lower […], dose upper 2000.0 nM, time 2.0 hrs; remark: listed apart in the source
[21] = tested on: HL-60; experiment: Induction of cell cycle arrest in human HL-60 cells assessed as proportion of cells at subG1 phase at 2000 nM incubated for 24 hrs by PI staining based flow cytometry (reference value: 6.94%); assay type: functional
[22] = tested on: MV4-11; assay type: functional, Homo sapiens; details: dose 2000 nM; time 24 hrs
[23] = tested on: MV4-11; assay type: functional, Homo sapiens; details: dose 400 nM; time 24 hrs
[24] = tested on: HL-60; experiment: Induction of cell cycle arrest in human HL-60 cells assessed as proportion of cells at subG1 phase at 400 nM incubated for 24 hrs by PI staining based flow cytometry (reference value: 6.94%); assay type: functional
[25] = tested on: MV4-11; experiment: Induction of cell cycle arrest in human MV4-11 cells assessed as proportion of cells at subG1 phase at 3.2 nM incubated for 24 hrs by PI staining based flow cytometry (reference value: 10.44%); assay type: functional
[26] = tested on: MV4-11; experiment: Induction of cell cycle arrest in human MV4-11 cells assessed as proportion of cells at G2/M phase at 3.2 nM incubated for 24 hrs by PI staining based flow cytometry (reference value: 10%); assay type: functional
[27] = tested on: MV4-11; assay type: functional, Homo sapiens; details: dose 3.2 nM; time 24 hrs
[28] = tested on: Receptor-type tyrosine-protein kinase FLT3 (Homo sapiens), P36888 [UNDEFINED MUTATION]; experiment: Inhibition of FLT3-ITD mutant (unknown origin) expressed in mouse BaF3 cells assessed as inhibition of STAT5 phosphorylation at Tyr694 residue at 16 to 2000 nM incubated for 2 hrs by immunoblot analysis; assay type: cell-based; details: dose lower […], dose upper 2000.0 nM

Chain of Receptor-type tyrosine-protein kinase FLT3 (Homo sapiens), P36888 [UNDEFINED MUTATION] (P36888 whole entry, looked up, change not shown): as the sequence (P36888 whole entry) above

`COc1ccc(NC(=O)Nc2nnc(Sc3ncnc4oc(-c5ccccc5)cc34)s2)cc1` was tested, and the GI50 [1] was 277 nM, the inhibition [2] was “Active” and the Activity [3] was 13.04%. For the same compound, the Activity [4] was 13.68%, the inhibition [5] was “Dose-dependent-effect” and the Activity [6] was 48.8%. The Activity [7] was 32.95%, the inhibition [8] was “Active” and the Activity [9] was 48.76%. It also gave an Activity [10] of 7.88%, an Activity [11] of 13.74% and a GI50 [12] of 63 nM. For the same compound, the Activity [13] was 13.94%, the Activity [14] was 5.78% and the Activity [15] was 38.33%. The Activity [16] was 8.07%, the Activity [17] was 3.85% and the inhibition [18] was “Dose-dependent-effect”. For the same compound, the Activity [19] was 1.1%, the inhibition [20] was “Active” and the Activity [21] was 7.81%. For the same compound, the Activity [22] was 93.13%, the Activity [23] was 94.09% and the Activity [24] was 7.9%. It also gave an Activity [25] of 12.84%, an Activity [26] of 6.22% and an Activity [27] of 72.92%. For the same compound, the inhibition [28] was “Active”.
